These results are taken from patent US20040023362A1, “Degradation of polycyclic aromatic hydrocarbons by microorganisms” (priority 2000, published 2004).

Entries after “also recorded” stand apart in the source; their conditions may differ.

One data set can be described thus: physchem. As for the experimental part: PAHs (approximately 1 g l^−1) were added to a 10 ml solution of BSM plus surfactant in a 30 ml glass reaction vial, which was sealed with an aluminium cap fitted with a septum. Surfactant concentrations corresponded to levels above, below, and at the CMC, and replicates were set up to allow sampling in duplicate at different time intervals up to 72 h. Incubation was performed at 30° C. and 175 rpm. The entire vial contents was collected by syringe and expressed through a preconditioned membrane filter (0.22 μm, Sartorius AG, Germany) to remove solid-phase crystalline PAH while allowing solubilized PAH in the aqueous phase and micellar pseudophase to pass into sterile vials. The filter was preconditioned by purging the filter with a few mls of sample solution to allow sorption saturation of the internal surfaces of the syringe, filter and needle. The filtrates were extracted with dichloromethane (DCM), and the concentration of solubilized PAH was determined by GC-FID as described below.
The effectiveness of a particular surfactant in solubilizing a given PAH can be assessed by determining the molar solubilization ratio (MSR) and micelle/water partition coefficient (Km). In our study, the concentrations of added PAHs were well in excess of aqueous saturation concentrations; therefore the MSR value of each compound can be obtained from the slope of the curve generated from a plot of PAH concentration versus surfactant concentration for surfactant concentrations above CMC (Edwards et al, 1991).
Km values can be determined from the measured MSR values according to the following equation (Edwards et al, 1991): [formula]
^SPAH, CMC is the apparent solubility of the PAH (mol l^−1) at surfactant CMC. VW is the molar volume of water at 30° C. ie. 0.018015 l mol^−1(Rogers and Mayhew, 1981).

Data set [1] can be described thus: Surfactant critical micelle concentration, duNouy ring tensitometer. It counts as physicochemical. The conditions noted are these: for CMC in BSM compared with deionized (distilled) water: 30° C.; for CMC: in BSM. As for the experimental part: Experiments to evaluate surfactant CMC values were conducted at 30° C. using a duNouy ring tensitometer (Cambridge Instrument Company Limited, London, England). All glassware was cleaned with chromic acid solution, and the tensitometer ring was cleaned with acetone and heated to redness in a gas flame. Various concentrations of surfactant solutions were prepared in deionized water and BSM. Surfactant solutions were allowed to equilibrate for approximately 2 h before measurements were made. Measurements were an average of five readings (SD<0.3%). CMC value was taken from the plot of surface tension versus log surfactant concentration, as described by Kile and Chiou (1989).

The conditions of data set [2]: data from the manufacturers; cited from earlier work.
Data set [3] has as its system S. maltophilia VUN 10,010. In words: Pyrene degradation and growth of VUN 10,010 in the presence of surfactants. It counts as cell-based, Stenotrophomonas maltophilia. As to conditions: for effect on growth of VUN 10,010 on pyrene (protein analysis, MPN): surfactant 5-10 g l^−1; for effect on pyrene degradation by VUN 10,010: surfactant 5-10 g l^−1 (up to 10 g l^−1). The procedure: Each surfactant was added to the medium to achieve the following concentrations: 0.5 g l^−1 (▴), 5.0 g l^−1 (●) and 10.0 g l^−1 (▪). The control cultures ( ) contained no added surfactant. The incubations were performed in BSM at 30° C., using low initial cell populations.
Growth was monitored by measuring protein concentration and viable cell numbers at regular intervals up to 10 days. Viable cell numbers were determined by most probable number (MPN) estimates (Collin et al, 1989).
Three types of controls were used: cultures containing no surfactant, uninoculated broth, and killed cell cultures (0.2% HgCl2). All cultures were incubated at 30° C./175 rpm. Bacterial growth was determined by MPN estimates.

In another data set the test system is strain VUN 10,010. In words: Agar (well) diffusion toxicity test of surfactants. It counts as cell-based, Stenotrophomonas maltophilia. As for the experimental part:
The agar diffusion method was used to determine the effects of surfactants on growth by observing zones of inhibition on peptone-glucose agar (Cserhali et al, 1991). The medium contained per litre: 5 g peptone, 5 g glucose, 0.5 g NaCl, 3 g beef extract, 20 g agar; the pH was adjusted to 7.0 and sterilized by autoclaving for 15 min at 121° C. Bacterial cultures were mixed with the molten medium (25 ml) to obtain an inoculum size of approximately 10^8 cells ml^−1, and this was poured into a Petri dish. Once the cell-medium mixture had solidified, 7 mm diameter holes were made, and 150 μl of aqueous surfactant solutions was added (0.1-10.0 g l^−1). Growth inhibition zones were observed after 48-72 h at 30° C.

The conditions of data set [4]: Ghosh et al (1995); medium and temperature not specified; cited from earlier work.

Turning to Tyloxapol, in “physchem”, the “MSR (molar solubilization ratio), PYR” value was 0.0820 and the “log Km (micelle-phase/aqueous-phase partition coefficient), PYR” value is 6.60. Besides, in data set [1], the “CMC in BSM compared with deionized (distilled) water” value (shortened to “CMC in BSM compared with deionized”) is “higher CMC values in distilled water” and the CMC is listed as 0.0167 mM. Further, the “HLB (hydrophile-lipophile balance number)” value (“HLB” below) in data set [2] is 12.9. In data set [3], the “effect on growth of VUN 10,010 on pyrene (protein analysis, MPN)” value is listed as “significantly improved” and the “effect on pyrene degradation by VUN 10,010” value (shortened to “effect on pyrene degradation”) is recorded as “enhanced”. For the same compound, the “reduction of time required for VUN 10,010 to degrade 250 mg l^−1 of pyrene” value in data set [3] (surfactant 5-10 g l^−1, presolubilized pyrene) turned out to be 50%.

On to Igepal CA-630, for which, in the data set “physchem”, the “MSR (molar solubilization ratio), PYR” value came to 0.0326 and the “log Km (micelle-phase/aqueous-phase partition coefficient), PYR” value is reported as 5.39. In addition, the “effect on microbial growth” value in the data set on strain VUN 10,010 (concentrations of 5 and 10 g l^−1) was “some inhibition”. Further, in data set [1], the “CMC in BSM compared with deionized” value was “higher CMC values in BSM” and the CMC worked out at 0.1078 mM. In addition, the “HLB” value in data set [2] is 13.0. Also, in data set [3], the “effect on growth of VUN 10,010 on pyrene (protein analysis, MPN)” value is recorded as “inhibited” and the “effect on pyrene degradation” value is “inhibited pyrene degradation; also recorded: inhibitory to pyrene degradation”.

With Triton X-100, in the data set “physchem”, the “MSR (molar solubilization ratio), BAP” value is given as 0.0113; the “MSR (molar solubilization ratio), FA” value is recorded as 0.0508; the “MSR (molar solubilization ratio), PYR” value amounted to 0.0352; the “log Km (micelle-phase/aqueous-phase partition coefficient), BAP” value was found to be 7.49. Besides, in “physchem”, the “log Km (micelle-phase/aqueous-phase partition coefficient), FA” value is recorded as 5.64 and the “log Km (micelle-phase/aqueous-phase partition coefficient), PYR” value was 5.84. Moreover, in data set [1], the “CMC in BSM compared with deionized” value is “higher CMC values in distilled water” and the CMC was 0.2320 mM. Further, in data set [2], the “HLB” value is given as 13.5. In addition, the “effect on pyrene degradation” value in data set [3] is “enhanced”. In data set [4], the “MSR for benzo[a]pyrene” value is 1.5×10^−2.

The MIC is the lowest concentration that inhibits growth of the organism. Low values mean inhibition by little substance, high ones a need for much substance. Compound `CCCCCCCCCCCCOS(=O)(=O)[O-].[Na+]` [SDS] came in with an MIC with strain VUN 10,010 (peptone-glucose agar, 30° C.) of 200 µg/mL.

With `CCCCCCCCCCCCCCCC[N+](C)(C)C.[Br-]` [CTAB], the “inhibitory concentration in well diffusion toxicity test” value in the data set on strain VUN 10,010 (peptone-glucose agar, 30° C.) lay within 0.01 to 0.05 g/L.
